Data published in PubChem BioAssay (NCI).
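Five compound concentrations were applied to cells in 96-well plates for 48 hours; endpoints were derived by simple linear interpolation of the resulting dose-response curve. The concentration for 50% growth inhibition is given as GI50. Definition used: TGI = concentration required for complete inhibition of growth.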

Assays:
Assay in all cases: NCI-60 cell line screen, 48 h
SF-539 CNS = test system: SF-539 CNS
UACC-62 melanoma = test system: UACC-62 melanoma
MCF7 breast = test system: MCF7 breast
HOP-62 NSCLC = test system: HOP-62 NSCLC
SF-295 CNS = test system: SF-295 CNS
SN12C renal = test system: SN12C renal
SK-MEL-2 melanoma = test system: SK-MEL-2 melanoma
BT-549 breast = test system: BT-549 breast
NCI-H23 lung = test system: NCI-H23 lung
NCI-H522 lung = test system: NCI-H522 lung

Row | SMILES | GI50 (SF-539 CNS) | TGI (SF-539 CNS) | GI50 (UACC-62 melanoma) | TGI (UACC-62 melanoma) | GI50 (MCF7 breast) | TGI (MCF7 breast) | GI50 (HOP-62 NSCLC) | TGI (HOP-62 NSCLC) | GI50 (SF-295 CNS) | TGI (SF-295 CNS) | GI50 (SN12C renal) | TGI (SN12C renal) | GI50 (SK-MEL-2 melanoma) | TGI (SK-MEL-2 melanoma) | GI50 (BT-549 breast) | TGI (BT-549 breast) | GI50 (NCI-H23 lung) | TGI (NCI-H23 lung) | GI50 (NCI-H522 lung) | TGI (NCI-H522 lung)
1 | CN1CCN(C(=O)COc2ccc(C34CC5CC(CC(C5)C3)C4)cc2)CC1 | 12700 nM | 25.9 µM | 11000 nM | 23.4 µM | 12700 nM | 29.7 µM | 14500 nM | 32.5 µM | 13500 nM | 27.8 µM | 12600 nM | 26.1 µM | 15500 nM | 30.4 µM | 12200 nM | 26.5 µM | 15300 nM | 36.7 µM | 15000 nM | 33.4 µM
2 | COc1ccccc1NC(=O)c1cc2cc(Br)ccc2cc1O | 2340 nM | 7.34 µM | 1700 nM | 8.23 µM | 1760 nM | 9.3 µM | 2380 nM | 6.86 µM | 2310 nM | 7.59 µM | 2730 nM | 9.64 µM | 2030 nM | 5.51 µM | 2150 nM | 6.12 µM | 2190 nM | 8.71 µM | 1860 nM | 7 µM
3 | CC(=O)Nc1cc2ccc(=O)oc2cc1Cl |  | > 100 µM |  | > 100 µM |  | > 100 µM |  | > 100 µM |  | > 100 µM |  | > 100 µM |  | > 100 µM |  | > 100 µM |  | > 100 µM |  | > 100 µM
4 | NC(N)=NS(=O)(=O)c1ccc(N=Nc2c(O)c(C(=O)O)cc3ccccc23)cc1 |  | > 100 µM |  | > 100 µM |  | > 100 µM |  | > 100 µM |  | > 100 µM |  | > 100 µM |  | > 100 µM |  | > 100 µM |  | > 100 µM |  | > 100 µM
5 | CC1(C)[C@@H](NOCCCN)CC[C@]2(C)[C@H]3C(=O)C=C4[C@@H]5C[C@](C)(C(=O)O)CC[C@]5(C)CC[C@@]4(C)[C@]3(C)CC[C@@H]12 | 11900 nM | 24.2 µM | 3850 nM | 14.8 µM | 4090 nM | 17.1 µM | 13500 nM | 48.4 µM | 10300 nM | 29.1 µM | 4600 nM | 19.5 µM | 5300 nM | 26.6 µM | 9440 nM | 47.8 µM | 10700 nM | 64.7 µM | 2080 nM | 4.85 µM
6 | COc1cc2c(cc1OC)C(Cl)C(c1ccc(F)cc1)=C2Cl (stereo not drawn) |  | 30.4 µM |  | 29.8 µM |  | 23.9 µM |  | 30.1 µM |  | 29 µM |  | 27 µM |  | 26.5 µM |  | 15.6 µM |  | 16.5 µM |  | 21.8 µM
7 | C=C1C[C@H](O)[C@H](Br)C(C)(C)[C@@]12CCC(C)=C(Cl)C2 | 445 nM | 11.3 µM | 675 nM | 3.15 µM | 275 nM | 1.97 µM | 377 nM | 4.92 µM | 105 nM | 1.69 µM | 416 nM | 6.61 µM | 422 nM | 2.61 µM | 248 nM | 2.82 µM | 173 nM | 2.99 µM | 416 nM | 3.46 µM
8 | COc1cc2c(cc1OC)-c1cc(OC)c(OC)cc1C(CN(C)C)C2 (stereo not drawn) | > 10000 nM | > 10 µM | > 10000 nM | > 10 µM | > 10000 nM | > 10 µM | > 10000 nM | > 10 µM | > 10000 nM | > 10 µM | > 10000 nM | > 10 µM | > 10000 nM | > 10 µM | > 10000 nM | > 10 µM | > 10000 nM | > 10 µM | > 10000 nM | > 10 µM
9 | O=C(NC1CCCCC1)NS(=O)(=O)c1ccc(N2N=C3c4ccccc4CC3C2c2ccc(Cl)cc2)cc1 (stereo not drawn) | 12800 nM | 31.9 µM | 14900 nM | 32.7 µM | 2520 nM | 22.2 µM | 15000 nM | 30.9 µM | 15900 nM | 43.9 µM | 16800 nM | 32.6 µM | 24400 nM | 80.4 µM | 7010 nM | 25.2 µM | 12200 nM | 36.2 µM | 9430 nM | 30.9 µM
10 | NC(=S)N/N=C\c1nccc2c(C(F)(F)F)cccc12 | 243 nM | 0.857 µM | 283 nM | 1.15 µM | 317 nM | 13.3 µM | 207 nM | 1.4 µM | 341 nM | 10.3 µM | 310 nM | 12.4 µM | 461 nM | 8.34 µM | 395 nM | 7.71 µM | 446 nM | > 49 µM | 269 nM | 0.805 µM
11 | CC(=C(c1ccc(OCCN2CCCCC2)cc1)c1ccc(OCCN2CCCCC2)cc1)c1ccc(Cl)cc1 | 393 nM | 0.738 µM | 442 nM | 0.845 µM | 297 nM | 0.682 µM | 439 nM | 0.888 µM | 449 nM | 0.868 µM | 414 nM | 0.785 µM | 459 nM | 0.909 µM | 414 nM | 0.787 µM | 466 nM | 0.913 µM | 411 nM | 0.872 µM
12 | O=C1c2ccccc2C(=O)c2c(/C=C\N3CCCCC3)ccnc21 |  | 9.65 µM |  | 1.58 µM |  | 4.01 µM |  | 13.9 µM |  | 5.25 µM |  | 4.14 µM |  | 14 µM |  | 2.22 µM |  | 1.31 µM |  | 13.3 µM
13 | Br[Se]c1ccccn1 |  | 30 µM |  | 30.9 µM |  | 32.5 µM |  | 12.2 µM |  | 17 µM |  | 33.1 µM |  | 30.1 µM |  | 32.9 µM |  | 39.3 µM |  | 30.4 µM
14 | COC(=O)[C@]12CC[C@@H](C)[C@H](C)[C@@H]1C1=CC[C@@H]3[C@@]4(C)C[C@@H](O)[C@H](O)[C@@](C)(CO)[C@@H]4[C@H](O)C[C@@]3(C)[C@]1(C)CC2 | 14000 nM | 29 µM | 10100 nM | 23.6 µM | 12100 nM | 41 µM | 20300 nM | 42.7 µM | 15000 nM | 35.4 µM | 14500 nM | 30.6 µM | 22600 nM | 48.3 µM | 12600 nM | 26.4 µM | 16800 nM | 36.6 µM | 20900 nM | 43.3 µM
15 | CCOc1ccc(NC2=CC(=O)C(=O)c3ccccc32)cc1 |  | 4.18 µM |  | 3.2 µM |  | 3.93 µM |  | 12 µM |  | 5.4 µM |  | 3.31 µM |  | 16.2 µM |  | 3.02 µM |  | 3.93 µM |  | 3.39 µM
16 | CC(C)[C@@H]1NC(=O)[C@]2(C)CSC(=N2)c2ccnc(c2)CNC(=O)C[C@@H](/C=C/CCS)OC1=O | 83.2 nM | > 65.5 µM | 74.6 nM | 0.552 µM | 708 nM | > 100 µM | 52.5 nM |  | 62.3 nM | 0.322 µM | 711 nM | > 100 µM | 84.2 nM | 0.516 µM | 718 nM | > 100 µM | 303 nM | > 31.4 µM | 249 nM | 5.14 µM
17 | O=C(Nc1nn2c(-c3cc(C(F)(F)F)cc(C(F)(F)F)c3)nnc2s1)C1CCCC1 | 981 nM | > 100 µM | 253 nM |  | 512 nM | > 33.7 µM | 2420 nM | > 29.8 µM | 286 nM | 2.01 µM | 454 nM | > 36.7 µM | 529 nM | 2.4 µM | 796 nM | > 74.7 µM | 394 nM | > 100 µM | 277 nM | 2.29 µM
18 | C=C(C)C(=O)O[C@@H]1C[C@@]2(C)O[C@@H]2C[C@H](O)/C(C)=C/[C@H]2OC(=O)C(=C)[C@@H]21 |  | > 100 µM |  | > 100 µM |  | > 100 µM |  | > 100 µM |  | > 100 µM |  | > 100 µM |  | > 100 µM |  | > 100 µM |  | > 100 µM |  | 31.6 µM
19 | CN(C)c1ccc(/C=N/NC(=S)Nc2ccccc2)cc1 |  | > 100 µM |  | > 100 µM |  | > 100 µM |  | > 100 µM |  | > 100 µM |  | > 100 µM |  | > 100 µM |  | > 100 µM |  | > 100 µM |  | > 100 µM
20 | C[C@@H]1CC[C@H]2C(C)(C)[C@H]3C[C@@]12CC[C@@]3(C)O |  | > 100 µM |  | > 100 µM |  | > 100 µM |  | > 100 µM |  | > 100 µM |  | 60.5 µM |  | > 100 µM |  | > 100 µM |  | > 100 µM |  | > 100 µM
21 | CC[C@@H](c1ccc(O)c(O)c1)[C@@H](CC)c1ccc(O)c(O)c1 | 6660 nM | 23.6 µM | 10400 nM | 23.4 µM | 34900 nM | > 100 µM | 17700 nM | 33 µM | 27400 nM | 87 µM | 19300 nM | 41.3 µM | 30700 nM | 77.8 µM | 13200 nM | 26.1 µM | 14200 nM | 31.8 µM | 2460 nM | 5.63 µM
